Assay in all cases: biochemical
Common to all, as to design: Invitrogen SelectScreen kinase panel, percent inhibition at 1 uM, ATP at Km
Details in all cases: read-out: Invitrogen KSS %Inh at 1 µM

One assay has as its target ABL1 T315I (Homo sapiens, UniProt P00519, T315I). As for the experimental part: (§1) The METi and RAFi were screened against kinase panels (SelectScreen, Invitrogen; University of Dundee, Division of Signal Transduction Therapy, UK; Upstate Biotechnology/Millipore, Billerica, MA). In these selectivity assays the concentration of ATP was set to the Km value of ATP for each kinase tested to allow for a relative potency comparison between the various kinases. The compounds were tested at 1 µM final concentration. […] Supplementary file pone.0039653.s002.pdf: Figure S2 Kinase Selectivity Screen of RAFi. (A) Kinase selectivity screen (KSS) performed at University of Dundee (Division of Signal Transduction Therapy). Values in % inhibition of phosphorylation given 1 µM of RAFi compared to control. (B) KSS performed at Invitrogen (Selectscreen Service) compared to control. Values in % inhibition of phosphorylation given 1 µM of RAFi. (C) Cell based dose response kinase inhibition of indicated kinases by RAFi. (PDF) Click here for additional data file.

The target in another assay is T1, AMPK A1/B1/G1 (Homo sapiens, UniProt Q13131).
T1 construct: gene PRKAA1; A1/B1/G1
As to the method:
as §1

The next assay has as its target AURKA (Aurora A) (Homo sapiens, UniProt O14965). As to the method: as §1
Another assay addresses CDK1/cyclinB (Homo sapiens, UniProt P06493). As to the method: as §1
In a further assay the target is CDK2/CyclinA (Homo sapiens, UniProt P24941). As for the experimental part:
as §1

A further assay addresses CSNK1D (CK1 delta) (Homo sapiens, UniProt P48730). As for the experimental part: as §1
The target in another assay is CSNK1G1 (CK1 gamma 1) (Homo sapiens, UniProt Q9HCP0). As for the experimental part: as §1
Chain of CSNK1G1 (CK1 gamma 1) (Q9HCP0 whole entry): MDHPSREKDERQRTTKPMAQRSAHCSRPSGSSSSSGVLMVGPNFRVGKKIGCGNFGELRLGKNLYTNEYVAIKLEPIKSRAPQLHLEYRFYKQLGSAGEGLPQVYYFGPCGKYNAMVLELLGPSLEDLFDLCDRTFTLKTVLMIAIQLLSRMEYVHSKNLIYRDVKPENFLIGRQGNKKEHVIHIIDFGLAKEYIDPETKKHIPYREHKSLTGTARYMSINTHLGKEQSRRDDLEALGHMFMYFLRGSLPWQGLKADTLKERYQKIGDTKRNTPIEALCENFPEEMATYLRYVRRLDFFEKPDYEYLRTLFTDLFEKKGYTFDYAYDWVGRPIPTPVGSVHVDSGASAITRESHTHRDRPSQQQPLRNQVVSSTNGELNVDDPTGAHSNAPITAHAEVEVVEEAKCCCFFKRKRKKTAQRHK
In a further assay the target is EGFR (ErbB1) L858R (Homo sapiens, UniProt P00533, L858R). As to the method:
as §1

Another assay addresses EPHB2 (Homo sapiens, UniProt P29323). As for the experimental part:
as §1

The next assay deals with ERBB4 (HER4) (Homo sapiens, UniProt Q15303). As to the method: as §1
Chain of ERBB4 (HER4) (Q15303 whole entry): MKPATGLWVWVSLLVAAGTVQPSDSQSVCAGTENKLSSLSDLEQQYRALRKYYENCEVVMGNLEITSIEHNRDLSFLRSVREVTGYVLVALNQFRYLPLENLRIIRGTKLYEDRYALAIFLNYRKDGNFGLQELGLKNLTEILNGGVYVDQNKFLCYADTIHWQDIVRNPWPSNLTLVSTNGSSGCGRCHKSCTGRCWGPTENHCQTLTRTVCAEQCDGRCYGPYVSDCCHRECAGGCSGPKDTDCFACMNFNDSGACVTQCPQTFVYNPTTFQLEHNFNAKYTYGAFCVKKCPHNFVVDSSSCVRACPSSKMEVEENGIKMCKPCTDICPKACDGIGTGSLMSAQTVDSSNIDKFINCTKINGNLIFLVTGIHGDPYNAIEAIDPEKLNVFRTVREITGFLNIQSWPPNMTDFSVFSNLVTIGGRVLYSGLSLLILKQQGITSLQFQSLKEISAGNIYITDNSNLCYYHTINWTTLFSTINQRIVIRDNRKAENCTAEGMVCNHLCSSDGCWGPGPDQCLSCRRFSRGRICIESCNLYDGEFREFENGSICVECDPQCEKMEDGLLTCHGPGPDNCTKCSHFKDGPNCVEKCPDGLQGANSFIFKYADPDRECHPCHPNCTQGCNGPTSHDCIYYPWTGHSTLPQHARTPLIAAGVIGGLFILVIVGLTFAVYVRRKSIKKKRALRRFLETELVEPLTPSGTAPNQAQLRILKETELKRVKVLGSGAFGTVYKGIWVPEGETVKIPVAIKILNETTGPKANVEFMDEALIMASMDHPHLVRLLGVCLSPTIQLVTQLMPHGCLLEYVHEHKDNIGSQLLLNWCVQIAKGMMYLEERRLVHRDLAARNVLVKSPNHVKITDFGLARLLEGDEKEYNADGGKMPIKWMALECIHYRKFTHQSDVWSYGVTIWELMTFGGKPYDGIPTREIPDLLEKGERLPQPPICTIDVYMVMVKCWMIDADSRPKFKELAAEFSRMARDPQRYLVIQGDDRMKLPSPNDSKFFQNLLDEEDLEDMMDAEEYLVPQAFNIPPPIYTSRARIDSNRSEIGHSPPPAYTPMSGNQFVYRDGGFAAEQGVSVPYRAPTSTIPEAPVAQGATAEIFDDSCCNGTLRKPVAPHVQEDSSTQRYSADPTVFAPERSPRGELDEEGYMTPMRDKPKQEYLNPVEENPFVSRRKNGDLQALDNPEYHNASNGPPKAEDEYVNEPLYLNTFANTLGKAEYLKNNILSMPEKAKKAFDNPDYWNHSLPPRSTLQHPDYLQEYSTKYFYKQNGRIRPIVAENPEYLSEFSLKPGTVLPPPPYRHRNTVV
The next assay deals with IKBKB (IKK beta) (Homo sapiens, UniProt O14920). As for the experimental part:
as §1

In a further assay the target is IRAK4 (Homo sapiens, UniProt Q9NWZ3). As to the method: as §1
The next assay addresses KDR (VEGFR2) (Homo sapiens, UniProt P35968). As for the experimental part:
as §1

The target of another assay is LCK (Homo sapiens, UniProt P06239). As for the experimental part: as §1
Chain of LCK (P06239 whole entry): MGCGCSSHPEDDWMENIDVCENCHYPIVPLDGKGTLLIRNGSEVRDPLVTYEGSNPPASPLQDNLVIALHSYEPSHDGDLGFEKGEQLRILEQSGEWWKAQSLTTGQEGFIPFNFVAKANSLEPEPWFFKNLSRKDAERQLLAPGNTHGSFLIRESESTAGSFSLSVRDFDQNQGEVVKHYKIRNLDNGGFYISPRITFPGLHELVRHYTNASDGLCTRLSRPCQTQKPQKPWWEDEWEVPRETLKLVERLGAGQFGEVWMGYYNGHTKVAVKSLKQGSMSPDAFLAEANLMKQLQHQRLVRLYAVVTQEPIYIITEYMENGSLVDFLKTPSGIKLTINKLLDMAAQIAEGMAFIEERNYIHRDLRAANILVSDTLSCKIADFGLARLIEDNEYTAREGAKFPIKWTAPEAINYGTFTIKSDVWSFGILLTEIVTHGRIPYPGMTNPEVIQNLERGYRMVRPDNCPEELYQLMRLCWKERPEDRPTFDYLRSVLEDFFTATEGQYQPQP
A further assay deals with T2, LYN A (Homo sapiens, UniProt P07948).
T2 construct: isoform A
As to the method:
as §1

The next assay deals with MET (cMet) (Homo sapiens, UniProt P08581). As for the experimental part:
as §1

For the next assay, the target named is MINK1 (Homo sapiens, UniProt Q8N4C8). As to the method: as §1
The target of the next assay is PDGFRA (PDGFR alpha) (Homo sapiens, UniProt P16234). As for the experimental part: as §1
Chain of PDGFRA (PDGFR alpha) (P16234 whole entry): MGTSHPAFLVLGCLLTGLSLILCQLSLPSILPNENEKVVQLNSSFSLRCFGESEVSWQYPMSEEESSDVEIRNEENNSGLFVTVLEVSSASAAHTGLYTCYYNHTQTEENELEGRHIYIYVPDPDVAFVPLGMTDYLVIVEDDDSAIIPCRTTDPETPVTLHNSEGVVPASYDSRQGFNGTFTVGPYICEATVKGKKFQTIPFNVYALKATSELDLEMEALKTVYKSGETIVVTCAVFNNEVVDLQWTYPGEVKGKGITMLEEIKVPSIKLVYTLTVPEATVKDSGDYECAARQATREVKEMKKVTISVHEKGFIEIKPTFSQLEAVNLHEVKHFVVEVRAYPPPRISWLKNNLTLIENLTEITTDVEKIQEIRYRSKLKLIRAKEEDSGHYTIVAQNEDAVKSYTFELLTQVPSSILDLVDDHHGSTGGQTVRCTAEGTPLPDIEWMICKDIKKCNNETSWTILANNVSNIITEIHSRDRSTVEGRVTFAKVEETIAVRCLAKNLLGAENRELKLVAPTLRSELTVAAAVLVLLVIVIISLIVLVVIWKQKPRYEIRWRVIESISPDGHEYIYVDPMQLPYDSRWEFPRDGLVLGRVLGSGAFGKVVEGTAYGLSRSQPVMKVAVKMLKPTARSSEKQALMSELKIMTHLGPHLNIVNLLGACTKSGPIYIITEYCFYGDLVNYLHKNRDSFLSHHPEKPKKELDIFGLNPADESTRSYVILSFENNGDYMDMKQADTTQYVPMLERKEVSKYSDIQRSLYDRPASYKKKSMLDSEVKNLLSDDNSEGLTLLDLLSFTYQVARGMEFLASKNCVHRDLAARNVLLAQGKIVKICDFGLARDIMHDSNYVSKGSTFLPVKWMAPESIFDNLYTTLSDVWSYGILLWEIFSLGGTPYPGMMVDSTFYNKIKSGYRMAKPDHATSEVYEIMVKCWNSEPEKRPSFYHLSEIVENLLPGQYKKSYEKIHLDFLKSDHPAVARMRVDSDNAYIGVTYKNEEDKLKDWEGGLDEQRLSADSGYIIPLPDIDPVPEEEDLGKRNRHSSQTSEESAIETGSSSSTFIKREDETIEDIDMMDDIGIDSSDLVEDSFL
The target in the next assay is PLK3 (Homo sapiens, UniProt Q9H4B4). As to the method: as §1
For the next assay, the target named is PRKD1 (PKC mu) (Homo sapiens, UniProt Q15139). As for the experimental part:
as §1

Another assay concerns the target PTK2B (FAK2) (Homo sapiens, UniProt Q14289). As to the method: as §1
The target of the next assay is SYK (Homo sapiens, UniProt P43405). As for the experimental part:
as §1

Chain of PTK2B (FAK2) (Q14289 whole entry): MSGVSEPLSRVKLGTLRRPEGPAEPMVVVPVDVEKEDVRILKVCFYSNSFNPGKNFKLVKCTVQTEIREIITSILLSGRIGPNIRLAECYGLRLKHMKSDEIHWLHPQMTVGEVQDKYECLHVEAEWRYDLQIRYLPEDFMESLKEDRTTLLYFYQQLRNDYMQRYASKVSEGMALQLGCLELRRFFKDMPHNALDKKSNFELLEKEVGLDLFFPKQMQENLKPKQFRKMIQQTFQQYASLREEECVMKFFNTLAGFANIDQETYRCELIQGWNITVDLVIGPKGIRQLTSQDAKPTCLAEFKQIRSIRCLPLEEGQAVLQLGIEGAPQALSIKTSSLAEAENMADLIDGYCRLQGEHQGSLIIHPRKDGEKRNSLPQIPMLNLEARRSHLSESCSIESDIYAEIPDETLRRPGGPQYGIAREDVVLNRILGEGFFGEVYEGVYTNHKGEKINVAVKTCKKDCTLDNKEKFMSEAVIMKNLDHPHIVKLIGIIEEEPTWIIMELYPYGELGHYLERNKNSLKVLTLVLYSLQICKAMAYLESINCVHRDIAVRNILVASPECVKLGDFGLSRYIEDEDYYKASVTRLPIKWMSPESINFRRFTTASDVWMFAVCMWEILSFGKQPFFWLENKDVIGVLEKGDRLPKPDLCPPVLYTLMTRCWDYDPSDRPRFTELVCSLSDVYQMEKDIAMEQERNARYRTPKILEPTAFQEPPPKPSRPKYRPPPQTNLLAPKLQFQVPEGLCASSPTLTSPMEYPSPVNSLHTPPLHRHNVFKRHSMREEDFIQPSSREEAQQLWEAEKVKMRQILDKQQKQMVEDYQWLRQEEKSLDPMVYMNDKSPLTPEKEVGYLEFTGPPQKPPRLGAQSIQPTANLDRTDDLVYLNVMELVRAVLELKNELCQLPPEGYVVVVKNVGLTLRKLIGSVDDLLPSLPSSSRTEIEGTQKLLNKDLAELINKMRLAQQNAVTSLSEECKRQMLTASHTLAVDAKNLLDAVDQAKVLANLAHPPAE
Chain of CDK1/cyclinB (P06493 whole entry): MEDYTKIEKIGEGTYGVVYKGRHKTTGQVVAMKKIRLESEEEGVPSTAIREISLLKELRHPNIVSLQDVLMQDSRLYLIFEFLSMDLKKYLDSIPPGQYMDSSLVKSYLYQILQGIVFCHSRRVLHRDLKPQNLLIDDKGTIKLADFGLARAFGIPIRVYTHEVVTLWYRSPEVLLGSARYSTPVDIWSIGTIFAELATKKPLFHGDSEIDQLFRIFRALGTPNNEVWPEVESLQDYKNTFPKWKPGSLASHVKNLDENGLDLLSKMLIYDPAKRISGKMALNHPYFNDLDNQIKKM
Chain of CDK1/cyclinB (P14635 whole entry partner): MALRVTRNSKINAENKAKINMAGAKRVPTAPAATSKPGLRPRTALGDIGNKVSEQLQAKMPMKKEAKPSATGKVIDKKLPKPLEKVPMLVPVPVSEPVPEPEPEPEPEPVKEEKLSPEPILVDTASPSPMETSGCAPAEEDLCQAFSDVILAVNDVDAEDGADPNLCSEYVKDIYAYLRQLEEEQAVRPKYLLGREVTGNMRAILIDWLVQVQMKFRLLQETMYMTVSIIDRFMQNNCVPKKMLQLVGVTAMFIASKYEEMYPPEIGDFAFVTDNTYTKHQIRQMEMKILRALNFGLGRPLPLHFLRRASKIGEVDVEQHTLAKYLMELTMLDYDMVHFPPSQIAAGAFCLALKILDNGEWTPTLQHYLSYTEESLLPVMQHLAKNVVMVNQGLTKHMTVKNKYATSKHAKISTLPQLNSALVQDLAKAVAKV

On to `N#CCCNc1nccc(-c2cn(CC(F)F)nc2-c2cnc3[nH]ccc3c2)n1` [RAFi, PF-04880594], for which the inhibition at 1 µM at ABL1 T315I is -21%; at AMPK A1/B1/G1, 16%; at AURKA (Aurora A), 15%; at CDK1/cyclinB it was -1%; on CDK2/CyclinA it was 18%; at CSNK1D (CK1 delta) it was 95%. For the same molecule, the inhibition at 1 µM was 0% on CSNK1G1 (CK1 gamma 1); 6% on EGFR (ErbB1) L858R; 3% on EPHB2; 24% at ERBB4 (HER4); 0% on IKBKB (IKK beta); -16% at IRAK4. In addition, the inhibition at 1 µM was 33% on KDR (VEGFR2); 15% on LCK; 2% on LYN A; 12% on MET (cMet); 8% at MINK1; 10% on PDGFRA (PDGFR alpha). Further, the inhibition at 1 µM on PLK3 is 4%; at PRKD1 (PKC mu), 37%; on PTK2B (FAK2) it was 6%; on SYK, -35%.
